Like-named read-outs stand apart in the source and are kept apart here.
How the values were obtained:
[1] = system: NGP; experiment: IncuCyte live-cell imaging, antiproliferative effect; format: cell-based; details: Homo sapiens, 72 h
Procedure, shortened: (§1)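 Cells seeded in 384-well plates (neuroblastoma 1200–5000, HEK293T 600 cells/well), adhered overnight, then compound-treated in duplicate or triplicate; confluency tracked by IncuCyte live-cell imaging. Normalized confluence averaged from 3 experiments; absolute GI50 interpolated from four-parameter variable-slope curves.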

[2] = biological target: T1, CRBN (Homo sapiens, UniProt Q96SW2); experiment: CRBN binding assay (E3scan, Eurofins Discovery)
T1 construct: purchased Eurofins Discovery
T1 sequence (Q96SW2 whole entry): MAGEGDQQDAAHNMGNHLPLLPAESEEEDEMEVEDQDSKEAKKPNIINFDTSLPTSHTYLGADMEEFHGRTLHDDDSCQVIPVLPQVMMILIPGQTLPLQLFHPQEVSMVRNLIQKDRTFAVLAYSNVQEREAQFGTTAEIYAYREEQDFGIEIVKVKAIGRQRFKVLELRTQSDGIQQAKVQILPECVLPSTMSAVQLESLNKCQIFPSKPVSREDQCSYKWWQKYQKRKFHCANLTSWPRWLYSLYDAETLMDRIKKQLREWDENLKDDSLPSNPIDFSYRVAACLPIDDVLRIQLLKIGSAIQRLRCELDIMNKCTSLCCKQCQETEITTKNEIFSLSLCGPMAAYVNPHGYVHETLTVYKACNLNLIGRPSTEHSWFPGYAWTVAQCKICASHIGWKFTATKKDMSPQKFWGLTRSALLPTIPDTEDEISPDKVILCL
Description: (§2) AURKA, AURKB and CRBN binding assays were performed by Eurofins Discovery using the KdELECT Kinase Assay Panel (AURKA and AURKB), or the E3scan Ligand Binding Assay Technology (CRBN). More information can be found on the Eurofins Discovery Web site.
(§3) Graphs were generated using GraphPad Prism Software (version 10.1.2) or RStudio (R-4.3.2). All dose–response curves were computed on GraphPad Prism using the Variable Slope (four parameters) equation. Absolute half-maximal degradation (DC50), growth inhibitory (GI50) and enzymatic inhibitory (IC50) concentrations, as well as inhibition constants (Ki) were derived from dose–response curves via interpolation. Statistical tests were performed on GraphPad Prism and detailed in the figure legends. Unless otherwise stated, “n” in the figure legends indicates the number of independent experiments conducted at different times.

[3] = biological target: T2, AURKB (Homo sapiens, UniProt Q96GD4); experiment: AURKB binding assay (KINOMEscan / KdELECT, Eurofins Discovery)
T2 construct: purchased Eurofins Discovery
T2 sequence (Q96GD4 whole entry): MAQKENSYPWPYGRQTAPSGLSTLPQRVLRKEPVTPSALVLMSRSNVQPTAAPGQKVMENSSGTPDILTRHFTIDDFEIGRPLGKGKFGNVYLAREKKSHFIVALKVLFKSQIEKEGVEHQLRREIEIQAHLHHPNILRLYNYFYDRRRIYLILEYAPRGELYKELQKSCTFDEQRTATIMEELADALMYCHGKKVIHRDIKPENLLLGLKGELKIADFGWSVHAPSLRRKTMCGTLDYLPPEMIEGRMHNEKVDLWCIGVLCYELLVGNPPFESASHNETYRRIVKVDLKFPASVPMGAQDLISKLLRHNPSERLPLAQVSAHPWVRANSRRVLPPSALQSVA
Description: as §2, §3

[4] = biological target: T3, AURKA (Homo sapiens, UniProt O14965); experiment: AURKA binding assay (KINOMEscan / KdELECT, Eurofins Discovery); design: purchased Eurofins Discovery; details: for binding selectivity for AURKA over AURKB: Ki AURKB vs Ki AURKA
T3 sequence (O14965 1-403): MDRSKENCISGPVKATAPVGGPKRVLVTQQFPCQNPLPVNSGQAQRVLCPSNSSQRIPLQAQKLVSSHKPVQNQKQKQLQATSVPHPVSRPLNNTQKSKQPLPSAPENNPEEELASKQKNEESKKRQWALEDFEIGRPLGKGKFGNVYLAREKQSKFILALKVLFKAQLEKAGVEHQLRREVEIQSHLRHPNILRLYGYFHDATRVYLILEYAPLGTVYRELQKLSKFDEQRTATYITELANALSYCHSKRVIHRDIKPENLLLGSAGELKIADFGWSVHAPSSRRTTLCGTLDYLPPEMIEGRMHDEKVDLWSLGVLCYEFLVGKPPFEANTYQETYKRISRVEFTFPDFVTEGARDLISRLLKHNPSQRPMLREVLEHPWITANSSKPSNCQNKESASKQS
Description: as §2, §3

[5] = system: SJNB-8; experiment: IncuCyte live-cell imaging, antiproliferative effect; format: cell-based; details: Homo sapiens, 72 h, read-out: Cell GI50 72h, SJNB-8
Procedure, shortened: as §1

[6] = system: SK-N-AS; experiment: as above; format: cell-based; details: Homo sapiens, 72 h, read-out: Cell GI50 72h
Procedure, shortened: as §1

[7] = system: SK-N-SH; experiment: as above; format: cell-based; details: Homo sapiens, 72 h, read-out: Cell GI50 72h
Procedure, shortened: as §1

[8] = system: SK-N-BE(2)-C; experiment: as above; format: cell-based, human; details: 72 h; for GI50: Homo sapiens, SK-N-BE(2)-C, read-out: Cell GI50 72h; for growth-inhibitory activity upon cotreatment with tariquidar (in words): NGP, SJNB-8 and SK-N-BE(2)-C, 1 μM tariquidar
Source text: Human neuroblastoma cell lines NGP, IMR-32, SJNB-8, SK-N-BE(2)-C, SJNB-1, SK-N-SH and SK-N-AS, as well as benign immortalized cell lines RPE and HEK293T were either bought commercially or obtained through research laboratories. […] Screening for mycoplasma contamination occurred routinely on the cells. Human neuroblastoma cell lines SH-SY5Y_shABCB1 & SH-SY5Y_shNTC were generated by transduction with pLKO.1-ABCB1_TRCN0000059683 shRNA (Sigma MISSION SHCLND) or pLKO.1-puro NT shRNA (Sigma MISSION SHC002) vectors respectively (Supplementary Table S6), packaged using Lenti-X293T (Clontech). Transduced cells were selected with 2 μg/mL puromycin. These cells were cultured in DMEM 4.5 g/L D-Glucose, L-Glutamine and 110 mg/L Sodium Pyruvate (Gibco, #11995065) supplemented with 10% fetal bovine serum, 1× Antibiotic-Antimycotic solution (Sigma-Aldrich, #A5955) and 1× MEM nonessential amino acids (Sigma-Aldrich, #M7145). Incubation of all cells occurred at 37 °C and 5% CO2.
Neuroblastoma cells were seeded in 384-well plates at different densities ranging from 1200 to 5000 cells/well and allowed to adhere overnight. RPE and HEK293T were seeded at 200 and 600 cells/well, respectively. Compound treatment was performed using the D300e Digital Dispenser (Tecan) in duplicate or triplicate and cell confluency was monitored over time using the IncuCyte Live-cell imaging system (Sartorius). […] Mean normalized confluences were calculated from 3 individual experiments.
(§4) All dose–response curves were computed on GraphPad Prism using the Variable Slope (four parameters) equation. Absolute half-maximal degradation (DC50), growth inhibitory (GI50) and enzymatic inhibitory (IC50) concentrations, as well as inhibition constants (Ki) were derived from dose–response curves via interpolation. Statistical tests were performed on GraphPad Prism and detailed in the figure legends. Unless otherwise stated, “n” in the figure legends indicates the number of independent experiments conducted at different times.

[9] = biological target: T4, NanoLuc-AURKA (Homo sapiens, UniProt O14965); experiment: NanoBRET target engagement, live (intact) cells; format: cell-based; details: intact HEK293T
T4 construct: Plasmids encoding full-length wild-type AURKA fused to Nano-Luc; host or cells: HEK293T
T4 sequence (O14965 1-403): T3 sequence (O14965 1-403)
Description: The NanoBRET Target Engagement Assay (Promega) was performed according to the recommended instructions from the manufacturer. Plasmids encoding full-length wild-type AURKA fused to Nano-Luc via AURKA’s C-terminus (Promega, #NV1041) were transfected into HEK293T cells using FuGENE HD (Promega, #E2312). […] The plate was mixed at 900 rpm for 15 s, using an orbital shaker. For the permeabilized-mode, digitonin (Sigma-Aldrich, #D141) was additionally added at a final concentration of 50 μg/mL. Test compounds were subsequently administered in duplicate using the D300e digital dispenser (Tecan), followed by incubation for 2 h (37 °C, 5% CO2). To measure BRET, nanoglo substrate and extracellular nanoluc inhibitor (only in live-mode) (Promega #N2540) were added, and luminescence was measured using the GloMax Discover Microplate Reader (Promega) with a luminescence filter pair of 450 nm (BP filter, donor) and 600 nm (LP filter, acceptor). The NanoBRET ratio was calculated using the following formula: BRET ratio = 1000*[(acceptor signal/donor signal)with tracer – (acceptor signal/donor signal)no tracer]. Relative BRET ratios (%) were generated by normalizing to the negative DMSO control. The experiment was performed once with 2 replicate samples.
as §4

| Ki [2] [µM] | Ki [3] [µM] | Ki [4] [µM] | binding selectivity for AURKA over AURKB [4] | GI50 [6] [µM] | GI50 [7] [µM] | GI50 [8] [µM] | Structure (SMILES) | GI50 ([1]; read-out: GI50 72h, 72h) [µM] | GI50 ([1]; read-out: pGI50 (converted)) [µM] | GI50 ([1]; read-out: Cell GI50 72h, NGP (Figure 4B)) [µM] | GI50 [5] [µM] | growth-inhibitory activity upon cotreatment with tariquidar (in words) [8] | NanoLuc-AURKA engagement in intact cells (in words) [9] |
| --- | --- | --- | --- | --- | --- | --- | --- | --- | --- | --- | --- | --- | --- |
| 1.21 | – | – | – | – | – | – | O=C1CCC(Nc2ccc(N3CCN(C4CN(C(=O)[C@]5(Cc6cccc(Nc7nccs7)n6)CC[C@@H](Oc6cccc(Cl)c6F)CC5)C4)CC3)c(F)c2)C(=O)N1 (stereo partly drawn) [PROTAC 18] | 0.017 | 0.017 | – | – | – | – |
| – | – | – | – | – | – | – | O=C1CCN(c2ccc(N3CCN(CC4CN(C(=O)[C@]5(Cc6cccc(Nc7nccs7)n6)CC[C@@H](Oc6cccc(Cl)c6F)CC5)C4)CC3)nc2)C(=O)N1 [PROTAC 23] | 0.024 | 0.0234 | – | – | – | – |
| 4.3 | 2.39 | 0.001 | more than 2000 fold | – | – | – | O=C1CCN(c2ccc(N3CCN(CC4CCN(C(=O)[C@]5(Cc6cccc(Nc7nccs7)n6)CC[C@@H](Oc6cccc(Cl)c6F)CC5)CC4)CC3)nc2)C(=O)N1 [PROTAC 24] | 0.028 | 0.0275 | – | – | – | – |
| – | – | – | – | – | – | – | Cc1cc(Nc2ccc(F)c(CC3(C(=O)N4CC(N5CCN(c6ccc(NC7CCC(=O)NC7=O)cc6F)CC5)C4)CCN(Cc4cccc(Cl)c4F)CC3)n2)n[nH]1 (stereo not drawn) [PROTAC 29] | 0.036 | 0.0363 | – | – | – | – |
| 0.273 | 5.61 | 0.002 | more than 2000 fold | 3.18 | 1.58 | 3.73 | O=C1CCC(N2C(=O)c3cccc(OCCOCCOCCOCCNC(=O)[C@]4(Cc5cccc(Nc6nccs6)n5)CC[C@@H](Oc5cccc(Cl)c5F)CC4)c3C2=O)C(=O)N1 (stereo partly drawn) [SK2188, reference compound] | 0.04 | 0.0398 | 0.019 | 0.173 | – | – |
| 4.06 | 7.64 | 0.001 | more than 2000 fold | 0.994 | 0.43 | 1.11 | Cc1cc(Nc2ccc(F)c(CC3(C(=O)N4CCC(CN5CCN(c6ccc(N7CCC(=O)NC7=O)cn6)CC5)CC4)CCN(Cc4cccc(Cl)c4F)CC3)n2)n[nH]1 [SK4454] | 0.035 | 0.0347 | – | < 0.1 | comparable to AURKA inhibitor TAS-119 | able to bind NanoLuc-AURKA in intact cells |

| Structure (SMILES) | Ki [2] [µM] | Ki [3] [µM] | Ki [4] [µM] | binding selectivity for AURKA over AURKB [4] | GI50 [6] [µM] | GI50 [7] [µM] | GI50 [8] [µM] | GI50 ([1]; read-out: GI50 72h, 72h) [µM] | GI50 ([1]; read-out: pGI50 (converted)) [µM] | GI50 ([1]; read-out: Cell GI50 72h, NGP (Figure 4B)) [µM] | GI50 [5] [µM] | growth-inhibitory activity upon cotreatment with tariquidar (in words) [8] | NanoLuc-AURKA engagement in intact cells (in words) [9] |
| --- | --- | --- | --- | --- | --- | --- | --- | --- | --- | --- | --- | --- | --- |
| Cc1cc(Nc2ccc(F)c(CC3(C(=O)N4CCC(F)(CN5CCN(c6ccc(N7CCC(=O)NC7=O)cn6)CC5)CC4)CCN(Cc4cccc(Cl)c4F)CC3)n2)n[nH]1 [SK5527] | 1.13 | > 10 | 0.002 | more than 2000 fold | 0.654 | 0.244 | 0.477 | 0.042 | 0.0417 | – | < 0.1 | comparable to AURKA inhibitor TAS-119 | able to bind NanoLuc-AURKA in intact cells |
